Data from ChEMBL document CHEMBL1201862, “PubChem BioAssay data set” (2004).
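Step 1: Grow cells in 96-well plates. Step 2: Expose to compound for 48 hours at 5 concentrations. Step 3: Interpolate endpoints linearly; if unreached, use highest concentration. Here, GI50 denotes the concentration required for 50% inhibition of growth.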 Calls of active or inactive are those of the source. No stated cut-off is given here; in the data, active = GI50 up to about 1.1 µM and inactive = higher.

How the values were obtained:
Test in all cases: NCI anticancer screen, dose series, 48 h
A549 = test system: A549
SF-268 = test system: SF-268
SW-620 = test system: SW-620
SR = test system: SR
RXF 393 = test system: RXF 393
HOP-92 = test system: HOP-92
OVCAR-5 = test system: OVCAR-5
SF-539 = test system: SF-539
SNB-75 = test system: SNB-75
SK-OV-3 = test system: SK-OV-3
ACHN = test system: ACHN
MDA-MB-231 = test system: MDA-MB-231
MDA-N = test system: MDA-N
UACC-257 = test system: UACC-257
UACC-62 = test system: UACC-62
LOX IMVI = test system: LOX IMVI
BT-549 = test system: BT-549
Malme-3M = test system: Malme-3M
CCRF-CEM = test system: CCRF-CEM
PC-3 = test system: PC-3

Row | Compound | GI50 (A549) | GI50 (SF-268) | GI50 (SW-620) | GI50 (SR) | GI50 (RXF 393) | GI50 (HOP-92) | GI50 (OVCAR-5) | GI50 (SF-539) | GI50 (SNB-75) | GI50 (SK-OV-3) | GI50 (ACHN) | GI50 (MDA-MB-231) | GI50 (MDA-N) | GI50 (UACC-257) | GI50 (UACC-62) | GI50 (LOX IMVI) | GI50 (BT-549) | GI50 (Malme-3M) | GI50 (CCRF-CEM) | GI50 (PC-3)
1 | COc1ccc(-c2cc3ccccc3oc2=O)cc1OC | > 100 µM (inactive) | > 100 µM (inactive) | > 100 µM (inactive) | > 100 µM (inactive) | > 100 µM (inactive) | > 100 µM (inactive) | > 100 µM (inactive) | > 100 µM (inactive) | 60.3 µM (inactive) | 20.3 µM (inactive) | > 100 µM (inactive) | > 100 µM (inactive) | > 100 µM (inactive) | > 100 µM (inactive) | > 100 µM (inactive) | > 100 µM (inactive) | > 100 µM (inactive) | > 100 µM (inactive) | > 100 µM (inactive) | 
2 | CC(=O)c1ccc2c(c1)CC1(C2)Cc2cc3c(cc2C1)C(=O)CC3 (stereo not drawn) | 0.792 µM (active) | 3.15 µM (inactive) | 0.681 µM (active) | 0.322 µM (active) | 2.28 µM (inactive) | 4.21 µM (inactive) | 6.75 µM (inactive) | 0.733 µM (active) | 32 µM (inactive) | 0.723 µM (active) | 3.07 µM (inactive) | 2.51 µM (inactive) | 0.207 µM (active) | 11.4 µM (inactive) | 3.29 µM (inactive) | 6.37 µM (inactive) |  | 1.35 µM (inactive) | 0.65 µM (active) | 3.13 µM (inactive)
3 | CCCNC(=S)N/N=C1\C(=O)Nc2ccccc21 | > 100 µM (inactive) | > 100 µM (inactive) | > 100 µM (inactive) | > 100 µM (inactive) | > 100 µM (inactive) | > 100 µM (inactive) | > 100 µM (inactive) | > 100 µM (inactive) | > 100 µM (inactive) | > 100 µM (inactive) | > 100 µM (inactive) | > 100 µM (inactive) | > 100 µM (inactive) | > 100 µM (inactive) | > 100 µM (inactive) | > 100 µM (inactive) |  | > 100 µM (inactive) | > 100 µM (inactive) | > 100 µM (inactive)
4 | COc1cc(O)c2c(=O)c3cccc(C)c3[nH]c2c1 | > 10 µM (inactive) | > 10 µM (inactive) | > 10 µM (inactive) |  | > 10 µM (inactive) |  | > 10 µM (inactive) | > 10 µM (inactive) | 6.62 µM (inactive) | > 10 µM (inactive) | 7.41 µM (inactive) | > 10 µM (inactive) | > 10 µM (inactive) | > 10 µM (inactive) | > 10 µM (inactive) | 8.75 µM (inactive) | > 10 µM (inactive) | > 10 µM (inactive) | 7.6 µM (inactive) | > 10 µM (inactive)
5 | COc1ccc(C2c3cc4c(cc3OC(N3CCOCC3)C2C)OCO4)cc1 (stereo not drawn) | 23.2 µM (inactive) | 27.9 µM (inactive) | 29.1 µM (inactive) | 15.1 µM (inactive) | 19.1 µM (inactive) | 4.14 µM (inactive) | 34.8 µM (inactive) | 21.4 µM (inactive) | 35.9 µM (inactive) |  | 21.4 µM (inactive) |  | 16.9 µM (inactive) | 21.9 µM (inactive) | 27.6 µM (inactive) | 24.1 µM (inactive) | 20.3 µM (inactive) | 7.38 µM (inactive) | 20.3 µM (inactive) | 22.3 µM (inactive)
6 | Nc1nnc2n1C(=O)C(C1(C3=Nc4nnc(N)n4C3=O)Cc3ccccc3C1=O)=N2 | 43.5 µM (inactive) | > 100 µM (inactive) | > 100 µM (inactive) | 76.6 µM (inactive) | > 100 µM (inactive) | > 100 µM (inactive) | > 100 µM (inactive) | > 100 µM (inactive) | > 100 µM (inactive) | > 100 µM (inactive) | > 100 µM (inactive) | 31.8 µM (inactive) | > 100 µM (inactive) | > 100 µM (inactive) | > 100 µM (inactive) | 87.5 µM (inactive) |  | > 100 µM (inactive) | 48 µM (inactive) | > 100 µM (inactive)
7 | O=C(NNS(=O)(=O)c1ccc(Br)cc1)c1ccc(Cl)cc1NC(=O)C12CC3CC(CC(C3)C1)C2 | 8.15 µM (inactive) | 11.4 µM (inactive) | 19.5 µM (inactive) | 12.4 µM (inactive) | 15.7 µM (inactive) | 12.2 µM (inactive) | 18.2 µM (inactive) | 17.3 µM (inactive) | 14.2 µM (inactive) | 16.4 µM (inactive) | 16 µM (inactive) |  | 14.2 µM (inactive) | 13.5 µM (inactive) | 12.4 µM (inactive) | 14.1 µM (inactive) | 16.7 µM (inactive) | 14.8 µM (inactive) | 14.6 µM (inactive) | 15.9 µM (inactive)
8 | N#CCc1nc(-c2cc3c(ccc4ccccc43)oc2=O)cs1 | 50 µM (inactive) | 31.6 µM (inactive) | 91.8 µM (inactive) |  | 23.4 µM (inactive) | 20.3 µM (inactive) | > 100 µM (inactive) | 21.5 µM (inactive) | 0.507 µM (active) | 30.3 µM (inactive) | 27.5 µM (inactive) | 17.9 µM (inactive) |  | 26.9 µM (inactive) | 21.7 µM (inactive) | > 100 µM (inactive) | 17.1 µM (inactive) | > 100 µM (inactive) | > 100 µM (inactive) | 65.5 µM (inactive)
9 | CC(=O)CSc1c(-c2ccccc2)c(=O)n(-c2ccccc2)c(=S)n1-c1ccccc1 | > 100 µM (inactive) | > 100 µM (inactive) | > 100 µM (inactive) | > 100 µM (inactive) |  | > 100 µM (inactive) | > 100 µM (inactive) |  | 61.2 µM (inactive) | > 100 µM (inactive) | > 100 µM (inactive) |  | > 100 µM (inactive) | > 100 µM (inactive) | > 100 µM (inactive) | > 100 µM (inactive) | > 100 µM (inactive) | > 100 µM (inactive) | > 100 µM (inactive) | > 100 µM (inactive)
10 | O=c1[nH]c2cc(F)c(F)cc2nc1Cc1ccccc1 |  | > 100 µM (inactive) | > 100 µM (inactive) | > 100 µM (inactive) | > 100 µM (inactive) | > 100 µM (inactive) |  | > 100 µM (inactive) | > 100 µM (inactive) | > 100 µM (inactive) | > 100 µM (inactive) | > 100 µM (inactive) |  | > 100 µM (inactive) | > 100 µM (inactive) | > 100 µM (inactive) | > 100 µM (inactive) |  | > 100 µM (inactive) | > 100 µM (inactive)
11 | O=S1(=O)C(c2ccccc2)=C(O)c2ccccc21 | > 100 µM (inactive) | > 100 µM (inactive) | > 100 µM (inactive) |  | 35.8 µM (inactive) | > 100 µM (inactive) | > 100 µM (inactive) | > 100 µM (inactive) | > 100 µM (inactive) |  | > 100 µM (inactive) | 7.91 µM (inactive) |  | > 100 µM (inactive) | > 100 µM (inactive) | > 100 µM (inactive) | > 100 µM (inactive) | > 100 µM (inactive) | > 100 µM (inactive) | > 100 µM (inactive)
12 | O=C(NC(=S)NC(=O)c1cc(O)c(O)c(O)c1)c1cc(O)c(O)c(O)c1 | 37.1 µM (inactive) | 31.1 µM (inactive) | 27.7 µM (inactive) | > 100 µM (inactive) | 18 µM (inactive) | 32.7 µM (inactive) | 27 µM (inactive) | 30.8 µM (inactive) |  | 23.2 µM (inactive) | 23 µM (inactive) | 28.8 µM (inactive) | 2.65 µM (inactive) | 22.3 µM (inactive) | 23.7 µM (inactive) | 12.8 µM (inactive) |  |  | 4.41 µM (inactive) | 19.7 µM (inactive)
13 | CC(C)(C)C1=C(Br)C(C(C)(C)C)OP1(=O)O (stereo not drawn) | > 100 µM (inactive) | > 100 µM (inactive) |  |  |  | > 100 µM (inactive) | > 100 µM (inactive) | > 100 µM (inactive) | > 100 µM (inactive) | > 100 µM (inactive) | > 100 µM (inactive) |  | > 100 µM (inactive) | > 100 µM (inactive) | > 100 µM (inactive) | > 100 µM (inactive) |  | > 100 µM (inactive) |  | > 100 µM (inactive)
14 | NNC(=O)Cn1ccnn1 | > 100 µM (inactive) | > 100 µM (inactive) | > 100 µM (inactive) | > 100 µM (inactive) |  | > 100 µM (inactive) | > 100 µM (inactive) |  | > 100 µM (inactive) |  | > 100 µM (inactive) | > 100 µM (inactive) |  | > 100 µM (inactive) |  | > 100 µM (inactive) | > 100 µM (inactive) | > 100 µM (inactive) | > 100 µM (inactive) | > 100 µM (inactive)
15 | O=C(O)c1ccc2nc(-c3ccccn3)c(-c3ccccn3)nc2c1 |  | > 100 µM (inactive) | > 100 µM (inactive) | > 100 µM (inactive) | > 100 µM (inactive) | > 100 µM (inactive) |  | > 100 µM (inactive) | > 100 µM (inactive) | > 100 µM (inactive) | > 100 µM (inactive) | > 100 µM (inactive) |  | > 100 µM (inactive) | > 100 µM (inactive) | > 100 µM (inactive) | > 100 µM (inactive) |  | > 100 µM (inactive) | > 100 µM (inactive)
16 | O=C(NCCCCNCCCNC(=O)c1ccccc1)c1ccccc1 | > 100 µM (inactive) | > 100 µM (inactive) | > 100 µM (inactive) | > 100 µM (inactive) | > 100 µM (inactive) | > 100 µM (inactive) | > 100 µM (inactive) | > 100 µM (inactive) | > 100 µM (inactive) | > 100 µM (inactive) | > 100 µM (inactive) | > 100 µM (inactive) |  | > 100 µM (inactive) | > 100 µM (inactive) |  | > 100 µM (inactive) |  | > 100 µM (inactive) | > 100 µM (inactive)
